Data: patent EP2574339A1, “Pharmaceutical preparation for treating NADH-related illnesses” (Huber, Johannes, priority 2011, dated 2013)
Entries after “also recorded” stand apart in the source; their conditions may differ.

Tests used:
menschlichen Zellen [1] = experiment: Mitochondrial NAD+ generation / PAR formation from extracellular precursors with inhibitors, cell line not stated; format: cell-based; settings: for Funktion von NMN als extrazellulärer NAD^+-Vorläufer: NMN as precursor in presence of nucleoside transporter inhibitor (2 µM Dipyridamol, 10 µM NBTI); for NR-Nutzung: NR as precursor, nucleoside transporter inhibitor added
293mitoPARP Zellen [2] = experiment: Cell viability (MTT assay) of 293mitoPARP cells; format: cell-based, menschlichen Zellen; settings: for Zell-Überleben: FK866 (2 µM), 100 µM metabolite, 72 h, Fig. 3A
Method: (§1) Inhibitoren (2 µM FK866, 2 mM 3-AB, 10 µM NBTI, 2 µM Dipyridamol, 2 mM CMP, 25 µM PPADS, 1 mM Ap4A) oder Metaboliten (100 µM NAD^+, 100 µM NAAD, 100 µM NMN, 100 µM NAMN, 100 µM NA, 100 µM NR) wurden dem Zellkulturmedium zugesetzt, wie angegeben. […] Die Behandlung mit Inhibitoren und Metaboliten wurde für 24-48 h vor der Analyse von PAR Bildung und die Lebensfähigkeit der Zellen durchgeführt (72 h für 293mitoPARP Zellen, 96 h für HeLa S3-Zellen und 120 h für HepG2-Zellen). Die Lebensfähigkeit der Zellen wurde mittels MTT-Assay bestimmt.

HeLa S3 Zellen = experiment: Mitochondrial NAD+ content by PAR formation (transient mitoPARP) in HeLa S3 cells; format: cell-based, menschlichen Zellen; settings: FK866 (2 µM), 100 µM metabolite, Fig. 3B
HeLa S3-Zellen = experiment: Cell viability (MTT assay) of HeLa S3 cells; format: cell-based, menschlichen Zellen; settings: for Überleben: FK866 (2 µM), 100 µM metabolite, 96 h, Fig. 3B
Method: as §1

293mitoPARP Zellen [3] = experiment: Mitochondrial NAD+ content by PAR formation (mitoPARP) in 293mitoPARP cells; format: cell-based, menschlichen Zellen; settings: NamPRT inhibited by FK866 (2 µM), 100 µM metabolite in the medium, Fig. 3A
Method: Inhibitoren (2 µM FK866, 2 mM 3-AB, 10 µM NBTI, 2 µM Dipyridamol, 2 mM CMP, 25 µM PPADS, 1 mM Ap4A) oder Metaboliten (100 µM NAD^+, 100 µM NAAD, 100 µM NMN, 100 µM NAMN, 100 µM NA, 100 µM NR) wurden dem Zellkulturmedium zugesetzt, wie angegeben. NR wurde wie beschrieben bereitgestellt (Dölle et al., Anal. Biochem. 385 (2009), 377-379). Die Behandlung mit Inhibitoren und Metaboliten wurde für […] vor der Analyse von PAR Bildung und die Lebensfähigkeit der Zellen durchgeführt (72 h für 293mitoPARP Zellen, 96 h für HeLa S3-Zellen und 120 h für HepG2-Zellen). Die Lebensfähigkeit der Zellen wurde mittels MTT-Assay bestimmt.
Es wurden 293mitoPARP Zellen bereitgestellt, die ein Fusionsprotein exprimieren ("mitoPARP"), bestehend aus EGFP und PARP1cd (poly-ADP-Ribose-Polymerase-1), welches auf die mitochondriale Matrix abgezielt wurde. Mit mitochondrialem NAD^+ als Substrat generieren diese Zellen konstitutiv Protein-gebundenes PAR (Protein-gebundene poly-ADP-Ribose), welches immunchemisch visualisiert wird. Variationen im Umfang der erfassten PAR spiegeln damit Veränderungen des mitochondrialen NAD^+-Gehaltes wider. Ebenso wurde die transiente Expression von mitoPARP in HepG2 und HeLa S3 Zellen verwendet.
Ein PAR-Signal hängt sowohl von der katalytischen Aktivität von mitoPARP als auch von der Anwesenheit von NAD^+ ab. Folglich erlaubt die mitoPARP-Expression die Erkennung von Änderungen im mitochondrialen NAD^+-Gehalt.

menschlichen Zellen [4] = experiment: Cell viability (MTT assay) with extracellular precursors and inhibitors, cell line not stated; format: cell-based
[5] = extracellular NR (100 µM), b59: in Gegenwart von CMP, Fig. 4B
[6] = NMN as precursor, 2 mM CMP added
[7] = NAD^+ as extracellular precursor, competitive NPP substrate added (1 mM Ap4A), effect similar to PPADS
[8] = NAD^+ as extracellular precursor, inhibitor added (25 µM PPADS), cell line not stated

O=[N+]([O-])c1ccc(CSc2ncnc3c2ncn3[C@@H]2O[C@H](CO)[C@@H](O)[C@H]2O)cc1 [NBTI]
Funktion von NMN als extrazellulärer NAD^+-Vorläufer (menschlichen Zellen [1]; Fig. 4A): verlor NMN seine Funktion | NR-Nutzung (menschlichen Zellen [1]; Fig. 4B): hemmen

O=C([O-])c1ccc[n+]([C@@H]2O[C@H](COP(=O)(O)O)[C@@H](O)[C@H]2O)c1 [NAMN, Nikotinsäure-Mononukleotid]
Zell-Überleben (293mitoPARP Zellen [2]): schützen; also recorded: wiederherstellen | mitochondriale NAD^+-Bildung (HeLa S3 Zellen): unterstützen | Überleben (HeLa S3-Zellen): schützen; also recorded: Restaurierung des Überlebens | mitochondriale NAD^+-Generierung von NAMN (menschlichen Zellen [1]; NAMN as precursor in presence of CMP, Dipyridamol, NBTI, Fig. 4A): sensitiv gegenüber diesen Inhibitoren, wenn auch weniger stark | mitochondrialer NAD^+-Gehalt (PAR) (293mitoPARP Zellen [3]): unterstützen; also recorded: wiederherstellen

NC(=O)c1ccc[n+]([C@@H]2O[C@H](CO)[C@@H](O)[C@H]2O)c1 [NR, 1-[3,4-Dihydroxy-5-(hydroxymethyl)oxolan-2-yl]pyridin-5-carboxamid]
Zelllebensfähigkeit / Zellviabilität (menschlichen Zellen [4]; [5]): unterstützt | mitochondriale PAR-Bildung / mitochondriale NAD^+-Generierung (menschlichen Zellen [1]; [5]): unterstützt

Nc1ccn([C@@H]2O[C@H](COP(=O)(O)O)[C@@H](O)[C@H]2O)c(=O)n1 [CMP]
Zellviabilität (293mitoPARP Zellen [2]; [6]): verringert | Zellviabilität (HeLa S3-Zellen; [6]): verringert

OCCN(CCO)c1nc(N2CCCCC2)c2nc(N(CCO)CCO)nc(N3CCCCC3)c2n1 [Dipyridamol]
Funktion von NMN als extrazellulärer NAD^+-Vorläufer (menschlichen Zellen [1]; Fig. 4A): verlor NMN seine Funktion | NR-Nutzung (menschlichen Zellen [1]; Fig. 4B): hemmen

NC(=O)c1ccc[n+]([C@@H]2O[C@H](COP(=O)([O-])O)[C@@H](O)[C@H]2O)c1 [NMN, Nikotinamid-Mononukleotid]
Zell-Überleben (293mitoPARP Zellen [2]): schützen; also recorded: wiederherstellen | mitochondriale NAD^+-Bildung (HeLa S3 Zellen): unterstützen | Überleben (HeLa S3-Zellen): schützen; also recorded: Restaurierung des Überlebens | mitochondrialer NAD^+-Gehalt (PAR) (293mitoPARP Zellen [3]): unterstützen; also recorded: wiederherstellen

Nc1ncnc2c1ncn2[C@@H]1O[C@H](COP(=O)(O)OP(=O)(O)OP(=O)(O)OP(=O)(O)OC[C@H]2O[C@@H](n3cnc4c(N)ncnc43)[C@H](O)[C@@H]2O)[C@@H](O)[C@H]1O [Ap4A, Diadenosintetraphosphat]
Lebensfähigkeit der Zellen (293mitoPARP Zellen [2]; [7]): ähnlichen Effekt | Lebensfähigkeit der Zellen (HeLa S3-Zellen; [7]): ähnlichen Effekt

Cc1nc(N=Nc2ccc(S(=O)(=O)O)cc2S(=O)(=O)O)c(COP(=O)(O)O)c(C=O)c1O [PPADS]
Überleben der Zelle (menschlichen Zellen [4]; [8]): verhindert | Wiederherstellung des mitochondrialen NAD^+-Pools (menschlichen Zellen [1]; [8]): verhindert

O=C(O)c1cccnc1 [NA, Nikotinsäure]
Zell-Überleben (293mitoPARP Zellen [2]): wiederherstellen | Überleben (HeLa S3-Zellen): Restaurierung des Überlebens | mitochondrialer NAD^+-Gehalt (PAR) (293mitoPARP Zellen [3]): wiederherstellen

O=C(/C=C/c1cccnc1)NCCCCC1CCN(C(=O)c2ccccc2)CC1 [FK866]
Nam Nutzung (menschlichen Zellen [1]; 2 µM FK866, Fig. 3): gehemmt
